Patent US7265135B2 (Ortho-McNeil Pharmaceutical, Inc., priority 2001, dated 2007)

Each compound was assayed against T1, human histamine H3 receptor (Homo sapiens, UniProt Q9Y5N1) (assay: [3H]-N-methylhistamine binding assay). Settings: membranes of histamine H3 receptor-expressing SK-N-MC cells; 0.8 nM [3H]-N-methylhistamine; 45 min at 25° C.; Ki=(IC50)/(1+([L]/(KD)).
T1 construct: One μg supercoiled H3 receptor cDNA was added to the cells and mixed; expressed in transfected cells; membranes prepared from cell pellets
Procedure: The histamine H3 receptor binding effectiveness of compounds of the present invention was determined using the human histamine H3 receptor, Lovenberg et al Mol. Pharmacol. 1999, 1107. Screening using the human receptor is particularly important for the identification of new therapies for the treatment of human disease. Prior binding assays, for example, relied on rat synaptosomes (Garbarg et al J. Pharmacol. Exp. Ther. 1992, 263, 304), rat cortical membranes (West et al Mol. Pharmacol. 1990, 610), and guinea pig brain (Korte et al Biochem. Biophys. Res. Commun. 1990, 978). A recent comparative study comparing human H3 receptor activity with H3 receptors from rodent and primate have shown significant differences in the respective pharmacology of the rodent and primate receptors to the human receptor. (West et al Eur. J. Pharmacol. 1999, 233; Lovenberg et al., J. Pharmacol. Exp. Ther. 2000, 293, 771-778.)
A 10 cm tissue culture dish with a confluent monolayer of SK-N-MC cells was split two days prior to transfection. Using sterile technique the media was removed and the cells were detached from the dish by the addition of trypsin. One fifth of the cells were then placed onto a new 10 cm dish. Cells were grown in a 37° C. incubator with 5% CO2 in Minimal Essential Media Eagle with 10% Fetal Bovine Serum. After two days cells were approximately 80% confluent. These were removed from the dish with trypsin and pelleted in a clinical centrifuge. The pellet was then re-suspended in 400 μL complete media and transferred to an electroporation cuvette with a 0.4 cm gap between the electrodes (Bio-Rad #165-2088). One μg supercoiled H3 receptor cDNA was added to the cells and mixed. The voltage for the electroporation was set at 0.25 kV, the capacitance is set at 960 μF. After electroporation the cells were diluted into 10 mL complete media and plated onto four 10 cm dishes. Because of the variability in the efficiency of electroporation four different concentrations of cells were plated. The ratios used were; 1:20, 1:10, 1:5, with the remainder of the cells being added to the fourth dish. The cells were allowed to recover for 24 h before adding the selection media (complete media with 600 μg/mL G418). After 10 days dishes were analyzed for surviving colonies of cells. Dishes with well isolated colonies were used. Cells from individual colonies were isolated and tested. SK-N-MC cells were used because they give efficient coupling for inhibition of adenylate cyclase. The clones that gave the most robust inhibition of adenylate cyclase in response to histamine were used for further study.
Cell pellets from histamine H3 receptor-expressing SK-N-MC cells were homogenized in 20 mM Tris HCl/0.5 mM EDTA. Supernatants from a 800 g spin were collected, recentrifuged at 30,000 g for 30 minutes. Pellets were re-homogenized in 50 mM Tris/5 mM EDTA (pH 7.4). Membranes were incubated with 0.8 nM [^3H]-N-methylhistamine plus/minus test compounds for 45 min at 25° C. and harvested by rapid filtration over GF/C glass fiber filters (pretreated with 0.3% polyethylenimine) followed by four washes with ice cold buffer. Filters were dried, added to 4 mL scintillation cocktail and then counted on a liquid scintillation counter. Non-specific binding was defined with 10 μM histamine. PKi values were calculated based on a KD of 800 pM and a ligand concentration ([L]) of 800 pM according to the formula: Ki=(IC50)/(1+([L]/(KD))

T1 sequence (Q9Y5N1 whole entry): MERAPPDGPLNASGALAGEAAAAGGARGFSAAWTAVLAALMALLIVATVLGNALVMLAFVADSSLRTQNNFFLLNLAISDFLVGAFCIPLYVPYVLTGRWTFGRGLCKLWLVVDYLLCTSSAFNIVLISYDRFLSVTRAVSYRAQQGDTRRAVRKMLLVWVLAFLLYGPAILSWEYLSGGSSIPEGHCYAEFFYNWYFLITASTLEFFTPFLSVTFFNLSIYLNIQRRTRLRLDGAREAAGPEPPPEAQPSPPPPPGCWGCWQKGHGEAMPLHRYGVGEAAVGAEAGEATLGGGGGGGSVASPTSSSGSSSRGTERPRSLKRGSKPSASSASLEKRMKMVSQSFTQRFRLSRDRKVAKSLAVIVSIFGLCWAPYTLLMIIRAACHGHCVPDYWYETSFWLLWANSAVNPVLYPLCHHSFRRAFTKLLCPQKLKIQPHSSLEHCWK

Ki [nM] | SMILES
79 | Cn1c(C(=O)c2cccc3ccccc23)cnc1OCCCN1CCCCC1 [[3-Methyl-2-(3-piperidin-1-yl-propoxy)-3H-imidazol-4-yl]-naphthalen-1-yl-methanone]
9 | CCC(C)N1CCC(COc2ncc(C(=O)c3ccc(Br)cc3)n2C)CC1 (stereo not shown) [(4-Bromophenyl)-[2-(1-sec-butyl-piperidin-4-ylmethoxy)-3-methyl-3H-imidazol-4-yl]-methanone]
4.1 | CC(C)N1CCC(COc2ncc(C(=O)c3ccc(C(F)(F)F)cc3)n2C)CC1 [[2-(1-Isopropyl-piperidin-4-ylmethoxy)-3-methyl-3H-imidazol-4-yl]-(4-trifluoromethyl-phenyl)-methanone]
3.7 | CC(C)N1CCC(COc2ncc(C(=O)c3ccc(Cl)cc3)n2C)CC1 [(4-Chlorophenyl)-[2-(1-isopropylpiperidin-4-ylmethoxy)-3-methyl-3H-imidazol-4-yl]-methanone]
22 | CN(C)CCCSc1ncc(Cc2ccc(Cl)cc2)n1C [{3-[5-(4-Chlorobenzyl)-1-methyl-1H-imidazol-2-ylsulfanyl]-propyl}-dimethyl-amine]
6.6 | CCN1CCC(COc2ncc(C(=O)c3ccc(Br)cc3)n2C)CC1 [(4-Bromophenyl)-[2-(1-ethyl-piperidin-4-ylmethoxy)-3-methyl-3H-imidazol-4-yl]-methanone]
1.3 | CC(C)N1CCC(COc2ncc(C(=O)c3ccccc3Cl)n2C)CC1 [(2-Chlorophenyl)-[2-(1-isopropyl-piperidin-4-ylmethoxy)-3-methyl-3H-imidazol-4-yl]-methanone]
3 | CC(C)N1CCC(Sc2ncc(C(=O)c3ccc(Cl)cc3)n2C)CC1 [(4-Chlorophenyl)-[2-(1-isopropyl-piperidin-4-ylsulfanyl)-3-methyl-3H-imidazol-4-yl]-methanone]
7 | CN1CCC(Sc2ncc(C(=O)c3ccc(Cl)cc3)n2C)CC1 [(4-Chloro-phenyl)-[3-methyl-2-(1-methyl-piperidin-4-ylsulfanyl)-3H-imidazol-4-yl]-methanone]
98 | CN(C)CCSc1ncc(C(=O)c2ccc(Cl)cc2)n1C [(4-Chloro-phenyl)-[2-(2-dimethylamino-ethylsulfanyl)-3-methyl-3H-imidazol-4-yl]methanone]
7.6 | CC(C)N1CCC(COc2ncc(C(O)c3ccc(C#N)cc3)n2C)CC1 (stereo not shown) [4-{Hydroxy-[2-(1-isopropyl-piperidin-4-ylmethoxy)-3-methyl-3H-imidazol-4-yl]-methyl}-benzonitrile]
4.6 | CC(C)N1CCC(COc2ncc(C(=O)c3ccc([N+](=O)[O-])cc3)n2C)CC1 [[2-(1-Isopropyl-piperidin-4-ylmethoxy)-3-methyl-3H-imidazol-4-yl]-(4-nitro-phenyl)-methanone]
5.3 | CC(C)N1CCC(COc2ncc(C(=O)c3ccc(Br)cc3)n2C)CC1 [(4-Bromophenyl)-[2-(1-isopropyl-piperidin-4-ylmethoxy)-3-methyl-3H-imidazol-4-yl]-methanone]
315 | CN(C)CCC[S+]([O-])c1ncc(C(=O)c2ccc(Cl)cc2)n1C (stereo not shown) [(4-Chloro-phenyl)-[2-(3-dimethylamino-propane-1-sulfinyl)-3-methyl-3H-imidazol-4-yl]-methanone]
4 | CN(C)CCCSc1ncc(C(=O)c2ccccc2)n1C [[2-(3-Dimethylamino-propylsulfanyl)-3-methyl-3H-imidazol-4-yl]-phenyl-methanone]
3.1 | Cn1c(C(=O)c2ccc(Cl)cc2)cnc1SCCCN1CCCCC1 [(4-Chlorophenyl)-[3-methyl-2-(3-piperidin-1-yl-propylsulfanyl)-3H-imidazol-4-yl]-methanone]
3.2 | CN(C)CCCSc1ncc(C(=NO)c2ccc(Cl)cc2)n1C (mixture of isomers) [(4-Chlorophenyl)-[2-(3-dimethylamino-propylsulfanyl)-3-methyl-3H-imidazol-4-yl]-methanone oxime]
2.8 | CC(C)N1CCC(COc2ncc(C(=O)c3cccc(Cl)c3)n2C)CC1 [(3-Chlorophenyl)-[2-(1-isopropyl-piperidin-4-ylmethoxy)-3-methyl-3H-imidazol-4-yl]-methanone]
2 | CN1CCCC1CCSc1ncc(C(=O)c2ccc(Cl)cc2)n1C (stereo not shown) [(4-Chloro-phenyl)-{3-methyl-2-[2-(1-methyl-pyrrolidin-2-yl)-ethylsulfanyl]-3H-imidazol-4-yl}-methanone]
1.6 | CN(C)CCCSc1ncc(C(=O)c2ccc(Br)cc2)n1C [(4-Bromophenyl)-[2-(3-dimethylamino-propylsulfanyl)-3-methyl-3H-imidazol-4-yl]-methanone]
7.5 | Cn1c(C(=O)c2ccc(Br)cc2)cnc1SCCCN1CCCCC1 [(4-Bromophenyl)-[3-methyl-2-(3-piperidin-1-yl-propylsulfanyl)-3H-imidazol-4-ylmethanone]
4 | CC(C)N1CCC(COc2ncc(C(=O)c3cc(Cl)cc(Cl)c3)n2C)CC1 [(3,5-Dichlorophenyl)-[2-(1-isopropyl-piperidin-4-ylmethoxy)-3-methyl-3H-imidazol-4-yl]-methanone]
36.4 | Cn1c(CN2CCCCC2)cnc1OCCCN1CCCCC1 [[3-Methyl-2-(3-piperidin-1-yl-propoxy)-3H-imidazol-4-yl]-piperidin-1-yl-methane]
25 | CC(C)N1CCC(Oc2ncc(C(=O)c3ccc(Cl)cc3)n2C)CC1 [(4-Chlorophenyl)-[2-(1-isopropyl-piperidin-4-yloxy)-3-methyl-3H-imidazol-4-yl]-methanone]
2 | CN(C)CCCSc1ncc(C(=O)c2ccc(Cl)cc2)n1C [(4-Chlorophenyl)-[2-(3-dimethylamino-propylsulfanyl)-3-methyl-3H-imidazol-4-yl]-methanone]
2.5 | CC(C)N1CCC(COc2ncc(C(=O)c3ccc(F)cc3)n2C)CC1 [(4-Fluorophenyl)-[2-(1-isopropyl-piperidin-4-ylmethoxy)-3-methyl-3H-imidazol-4-yl]-methanone]

Same assay, conditions: value printed in text of Example XVI Step B, no unit at the place

SMILES | Ki [nM]
CN(C)CCCS(=O)(=O)c1ncc(C(=O)c2ccc(Cl)cc2)n1C [(4-Chlorophenyl)-[2-(3-dimethylamino-propane-1-sulfonyl)-3-methyl-3H-imidazol-4-yl]-methanone] | 10000
Cn1c(C(=O)c2ccc(Cl)cc2)cnc1S(=O)(=O)CCC[N+](C)(C)[O-] | 10000
